Active and inactive are the calls of the source. The calls are words filed in the database; no cut-off is given here.
How the values were obtained:
[1] = target: T1, Protein cereblon/Polycomb complex protein BMI-1 (Homo sapiens, UniProt Q96SW2+P35226); experiment: PROTAC activity at […] in human K562 cells assessed as degradation of BMI1 protein expression at 10 uM measured after 4 hrs by Western blotting analysis; format: cell-based
Target sequence in this assay (P35226 whole entry, looked up): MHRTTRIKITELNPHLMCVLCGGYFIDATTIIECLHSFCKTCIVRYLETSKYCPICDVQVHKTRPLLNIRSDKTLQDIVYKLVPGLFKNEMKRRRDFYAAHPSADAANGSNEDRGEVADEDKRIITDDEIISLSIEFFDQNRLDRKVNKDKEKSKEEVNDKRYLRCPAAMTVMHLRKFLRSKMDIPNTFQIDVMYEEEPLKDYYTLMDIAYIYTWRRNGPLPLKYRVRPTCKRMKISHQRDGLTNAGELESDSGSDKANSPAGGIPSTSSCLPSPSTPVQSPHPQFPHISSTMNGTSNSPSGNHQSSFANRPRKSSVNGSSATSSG
Target sequence in this assay (Q96SW2 whole entry, looked up): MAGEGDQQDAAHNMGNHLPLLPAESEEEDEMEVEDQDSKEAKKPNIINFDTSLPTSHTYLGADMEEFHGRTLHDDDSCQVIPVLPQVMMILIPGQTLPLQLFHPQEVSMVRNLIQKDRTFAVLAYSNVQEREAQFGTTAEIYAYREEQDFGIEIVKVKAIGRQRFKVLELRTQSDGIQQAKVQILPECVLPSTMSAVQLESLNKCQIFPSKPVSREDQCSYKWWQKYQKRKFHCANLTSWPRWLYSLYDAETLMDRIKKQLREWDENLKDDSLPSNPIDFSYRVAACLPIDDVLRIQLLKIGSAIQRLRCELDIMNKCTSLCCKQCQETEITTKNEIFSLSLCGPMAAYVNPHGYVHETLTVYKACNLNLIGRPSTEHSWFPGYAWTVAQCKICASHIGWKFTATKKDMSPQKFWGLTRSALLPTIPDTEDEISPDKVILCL

[2] = target: Protein cereblon/Eukaryotic peptide chain release factor GTP-binding subunit ERF3A (Homo sapiens) (UniProt Q96SW2+P15170); experiment: PROTAC activity at CRBN/GSPT1 in human K562 cells assessed as degradation of GSPT1 protein at 0.1 to 10 uM incubated for 4 hrs by Western blotting analysis; format: cell-based; conditions: dose 0.1-10 µM
[3] = target: Protein cereblon/Polycomb protein SUZ12 (Homo sapiens) (UniProt Q15022+Q96SW2); experiment: PROTAC activity at CRBN/SUZ12 in human PC-3M cells assessed as degradation of SUZ12 protein expression at 0.2 to 5 uM incubated for 24 hrs by Western blotting analysis; format: cell-based; conditions: dose 0.2-5 µM
[4] = target: T1, Protein cereblon/Polycomb complex protein BMI-1; experiment: PROTAC activity at […] in human K562 cells assessed as degradation of BMI1 mRNA expression at 10 uM incubated for 20 hrs by RT-qPCR analysis; format: cell-based
Target sequence in this assay (P35226 whole entry, looked up): as the sequence (P35226 whole entry, looked up) above
Target sequence in this assay (Q96SW2 whole entry, looked up): as the sequence (Q96SW2 whole entry, looked up) above

786-0 [5] = experiment: Antiproliferative activity against human 786-0 cells assessed as inhibition of cell growth at 15 uM incubated for 7 days by WST-8 assay; format: functional, cell-based; conditions: time 7.0 day
[6] = target: T1, Protein cereblon/Polycomb complex protein BMI-1; experiment: PROTAC activity at CRBN/BIM1 in human MDA-MB-468 cells assessed as degradation of BMI1 protein expression at 5 uM incubated for 24 hrs by Western blotting analysis; format: cell-based
Target sequence in this assay (P35226 whole entry, looked up): as the sequence (P35226 whole entry, looked up) above
Target sequence in this assay (Q96SW2 whole entry, looked up): as the sequence (Q96SW2 whole entry, looked up) above

[7] = target: T2, Protein cereblon/E3 ubiquitin-protein ligase RING2 (Homo sapiens, UniProt Q96SW2+Q99496); experiment: PROTAC activity at CRBN/RING1B in human MDA-MB-468 cells assessed as degradation of RING1B protein expression at 5 uM incubated for 24 hrs by Western blotting analysis; format: cell-based
Target sequence in this assay (Q96SW2 whole entry): as the sequence (Q96SW2 whole entry, looked up) above
Target sequence in this assay (Q99496 2-336 partner limits assumed): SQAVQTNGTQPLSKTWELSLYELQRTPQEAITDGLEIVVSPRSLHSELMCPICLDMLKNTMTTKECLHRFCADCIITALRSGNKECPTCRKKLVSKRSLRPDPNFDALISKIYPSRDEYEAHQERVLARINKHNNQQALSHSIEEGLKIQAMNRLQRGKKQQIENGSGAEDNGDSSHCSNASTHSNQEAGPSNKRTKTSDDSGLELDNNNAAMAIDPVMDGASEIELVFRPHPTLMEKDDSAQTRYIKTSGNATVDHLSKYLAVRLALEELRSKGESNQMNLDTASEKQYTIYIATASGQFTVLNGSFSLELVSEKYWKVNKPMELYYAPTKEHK

K562 [8] = experiment: Induction of PRC2 degradation in human K562 cells assessed as reduction of H3K27me3 chromatin mark at 0.1 to 10 uM incubated for 24 hrs by Western blotting analysis; format: cell-based; conditions: dose 0.1-10 µM
[9] = target: T2, Protein cereblon/E3 ubiquitin-protein ligase RING2; experiment: PROTAC activity at CRBN/RING1B in human K562 cells assessed as degradation of RING1B mRNA expression at 10 uM incubated for 20 hrs by RT-qPCR analysis; format: cell-based
Target sequence in this assay (Q96SW2 whole entry): as the sequence (Q96SW2 whole entry, looked up) above
Target sequence in this assay (Q99496 2-336 partner limits assumed): as the sequence (Q99496 2-336 partner limits assumed) above

786-0 [10] = experiment: Induction of PRC1 degradation in human 786-0 cells with defective VHL assessed as reduction of H2AK119ub chromatin mark at 10 uM incubated for 24 hrs by Western blotting analysis; format: cell-based
K562 [11] = experiment: Induction of PRC1 degradation in human K562 cells assessed as reduction of H2AK119ub chromatin mark at 0.1 to 10 uM incubated for 24 hrs by Western blotting analysis; format: cell-based; conditions: dose 0.1-10 µM
[12] = target: T1, Protein cereblon/Polycomb complex protein BMI-1; experiment: PROTAC activity at CRBN/BIM1 in human K562 cells assessed as degradation of BMI1 protein expression incubated for 24 hrs by Western blotting analysis; format: cell-based
[13] = target: T2, Protein cereblon/E3 ubiquitin-protein ligase RING2; experiment: PROTAC activity at CRBN/RING1B in human K562 cells assessed as degradation of RING1B protein expression incubated for 24 hrs by Western blotting analysis; format: cell-based
Target sequence in this assay (Q96SW2 whole entry): as the sequence (Q96SW2 whole entry, looked up) above
Target sequence in this assay (Q99496 whole entry): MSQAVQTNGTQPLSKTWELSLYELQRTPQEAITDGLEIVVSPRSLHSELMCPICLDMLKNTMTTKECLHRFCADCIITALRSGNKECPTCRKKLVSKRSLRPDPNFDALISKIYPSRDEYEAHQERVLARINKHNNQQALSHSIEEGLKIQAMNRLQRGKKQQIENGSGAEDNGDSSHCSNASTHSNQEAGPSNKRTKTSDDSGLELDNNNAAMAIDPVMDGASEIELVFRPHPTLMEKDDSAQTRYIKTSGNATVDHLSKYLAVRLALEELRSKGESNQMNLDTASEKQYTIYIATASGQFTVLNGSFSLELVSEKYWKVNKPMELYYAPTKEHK

PC-3M [14] = experiment: Induction of PRC2 degradation in human PC-3M cells assessed as reduction of H3K27me3 chromatin mark at 1 uM incubated for 24 hrs by Western blotting analysis; format: cell-based
[15] = Drug concentration in Swiss albino mouse plasma at 50 mg/kg,ip administration measured after 2 hrs by LC-MS/MS analysis; format: ADME, organism-based
[16] = target: Protein cereblon/YY1-associated factor 2 (Homo sapiens) (UniProt Q96SW2+Q8IY57); experiment: PROTAC activity at CRBN/YAF in human K562 cells assessed as degradation of YAF protein expression at 1 to 10 uM incubated for 24 hrs by Western blotting analysis; format: cell-based; conditions: dose 1-10 µM
[17] = target: T1, Protein cereblon/Polycomb complex protein BMI-1; experiment: PROTAC activity at CRBN/BIM1 in human PC-3M cells assessed as degradation of BMI1 protein expression at 1 uM incubated for 24 hrs by Western blotting analysis; format: cell-based
Target sequence in this assay (P35226 whole entry, looked up): as the sequence (P35226 whole entry, looked up) above
Target sequence in this assay (Q96SW2 whole entry, looked up): as the sequence (Q96SW2 whole entry, looked up) above

Polycomb protein EED = Polycomb protein EED (Homo sapiens, UniProt O75530); experiment: Binding affinity to EED (75 to 441 residues) (unknown origin) expressed in Escherichia coli BL21 (DE3) assessed as dissociation constant by isothermal titration calorimetry
[18] = target: T2, Protein cereblon/E3 ubiquitin-protein ligase RING2; experiment: PROTAC activity at CRBN/RING1B in human 786-0 cells with defective VHL assessed as degradation of RING1B protein expression at 10 uM incubated for 24 hrs by Western blotting analysis; format: cell-based
Target sequence in this assay (Q96SW2 whole entry): as the sequence (Q96SW2 whole entry, looked up) above
Target sequence in this assay (Q99496 2-336 partner limits assumed): as the sequence (Q99496 2-336 partner limits assumed) above

[19] = target: T1, Protein cereblon/Polycomb complex protein BMI-1; experiment: PROTAC activity at CRBN/BIM1 in human PC-3M cells assessed as degradation of BMI1 protein expression at 5 uM incubated for 24 hrs by Western blotting analysis; format: cell-based
Target sequence in this assay (P35226 whole entry, looked up): as the sequence (P35226 whole entry, looked up) above
Target sequence in this assay (Q96SW2 whole entry, looked up): as the sequence (Q96SW2 whole entry, looked up) above

MDA-MB-468 = experiment: Antiproliferative activity against human MDA-MB-468 cells assessed as inhibition of cell growth at 1 to 10 uM incubated for 5 days by WST-8 assay; format: functional, cell-based; conditions: dose 1-10 µM, time 5.0 day
[20] = target: T3, Protein cereblon/Polycomb protein EED (Homo sapiens, UniProt O75530+Q96SW2); experiment: PROTAC activity at CRBN/EED in human K562 cells assessed as degradation of EED mRNA expression at 10 uM incubated for 20 hrs by RT-qPCR analysis; format: cell-based
[21] = target: T1, Protein cereblon/Polycomb complex protein BMI-1; experiment: PROTAC activity at […] in human K562 cells assessed as degradation of BMI1 protein expression at 10 uM measured after 12 hrs by Western blotting analysis relative to control; format: cell-based
Target sequence in this assay (P35226 whole entry, looked up): as the sequence (P35226 whole entry, looked up) above
Target sequence in this assay (Q96SW2 whole entry, looked up): as the sequence (Q96SW2 whole entry, looked up) above

[22] = target: T2, Protein cereblon/E3 ubiquitin-protein ligase RING2; experiment: PROTAC activity at CRBN/RING1B in human PC-3M cells assessed as degradation of RING1B protein expression at 5 uM incubated for 24 hrs by Western blotting analysis; format: cell-based
Target sequence in this assay (Q96SW2 whole entry): as the sequence (Q96SW2 whole entry, looked up) above
Target sequence in this assay (Q99496 2-336 partner limits assumed): as the sequence (Q99496 2-336 partner limits assumed) above

PC-3M [23] = experiment: Induction of PRC1 degradation in human PC-3M cells assessed as reduction of H2AK119ub chromatin mark at 1 uM incubated for 24 hrs by Western blotting analysis; format: cell-based
[24] = target: T3, Protein cereblon/Polycomb protein EED; experiment: PROTAC activity at CRBN/EED in human K562 cells assessed as degradation of EED protein expression at 10 uM measured after 12 hrs by Western blotting analysis relative to control; format: cell-based
[25] = target: Cereblon/Ikaros (Homo sapiens) (UniProt Q96SW2+Q13422); experiment: PROTAC activity at CRBN/IKZF1 in human K562 cells assessed as degradation of IKZF1 protein at 0.1 to 10 uM incubated for 4 hrs by Western blotting analysis; format: cell-based; conditions: dose 0.1-10 µM
K562 [26] = experiment: Antiproliferative activity against human K562 cells assessed as fold increase in HoxD mRNA expression at 10 uM incubated for 24 hrs by RT-qPCR analysis; format: functional
[27] = target: von Hippel-Lindau disease tumor suppressor/Polycomb complex protein BMI-1 (Homo sapiens) (UniProt P40337+P35226); experiment: PROTAC activity at […] in human 786-0 cells with defective VHL assessed as degradation of BMI1 protein expression at 10 uM incubated for 24 hrs by Western blotting analysis; format: cell-based
786-0 [28] = experiment: Induction of PRC2 degradation in human 786-0 cells with defective VHL assessed as reduction of H3K27me3 chromatin mark at 10 uM incubated for 24 hrs by Western blotting analysis; format: cell-based

T3 sequence (O75530 2-441 limits assumed): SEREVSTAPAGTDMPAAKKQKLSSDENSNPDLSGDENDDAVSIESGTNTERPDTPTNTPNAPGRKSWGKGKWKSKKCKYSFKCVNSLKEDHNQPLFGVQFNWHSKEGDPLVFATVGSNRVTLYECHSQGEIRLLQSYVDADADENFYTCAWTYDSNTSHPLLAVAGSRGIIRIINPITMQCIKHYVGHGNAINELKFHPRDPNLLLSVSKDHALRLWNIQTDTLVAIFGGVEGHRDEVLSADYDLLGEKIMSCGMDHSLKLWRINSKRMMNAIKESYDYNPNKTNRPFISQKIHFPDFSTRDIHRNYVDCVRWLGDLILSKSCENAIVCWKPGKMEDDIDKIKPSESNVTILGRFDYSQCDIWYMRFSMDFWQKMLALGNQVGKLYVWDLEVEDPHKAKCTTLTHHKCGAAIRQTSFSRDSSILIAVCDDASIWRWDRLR
T3 sequence (Q96SW2 whole entry partner): as the sequence (Q96SW2 whole entry, looked up) above
Sequence of Polycomb protein EED (O75530 whole entry, the tested form may be a part): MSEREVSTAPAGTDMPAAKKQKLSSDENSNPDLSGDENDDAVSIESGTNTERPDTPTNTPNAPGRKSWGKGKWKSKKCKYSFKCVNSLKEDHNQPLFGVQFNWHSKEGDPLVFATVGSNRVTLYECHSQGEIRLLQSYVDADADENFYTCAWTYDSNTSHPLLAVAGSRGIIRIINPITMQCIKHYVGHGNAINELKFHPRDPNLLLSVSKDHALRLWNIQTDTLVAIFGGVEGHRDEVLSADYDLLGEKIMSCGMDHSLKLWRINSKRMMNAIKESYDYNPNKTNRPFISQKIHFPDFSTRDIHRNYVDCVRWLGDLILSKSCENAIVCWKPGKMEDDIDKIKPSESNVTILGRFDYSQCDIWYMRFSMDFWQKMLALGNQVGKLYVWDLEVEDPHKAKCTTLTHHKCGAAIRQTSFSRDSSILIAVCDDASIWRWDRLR
Sequence of Protein cereblon/YY1-associated factor 2 (Homo sapiens) (Q8IY57 whole entry, looked up): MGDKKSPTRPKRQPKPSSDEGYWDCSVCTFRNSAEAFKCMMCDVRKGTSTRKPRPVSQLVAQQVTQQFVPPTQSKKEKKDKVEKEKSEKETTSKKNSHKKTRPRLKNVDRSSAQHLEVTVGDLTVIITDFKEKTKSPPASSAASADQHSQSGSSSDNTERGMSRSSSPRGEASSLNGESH
Sequence of Protein cereblon/YY1-associated factor 2 (Homo sapiens) (Q96SW2 whole entry, looked up): as the sequence (Q96SW2 whole entry, looked up) above

**Q.** For `O=C(CNc1cccc2c1C(=O)N(C1CCC(=O)NC1=O)C2=O)NCCCCN1CCN(c2ccc(-c3cnc(NCc4ccco4)n4cnnc34)cc2)CC1` (stereo not given), which Activity [1] is on record?
**A.** The Activity was “Active”.

**Q.** What about the Activity [2] of the same compound?
**A.** Its Activity is “inactive”.

**Q.** And the Activity [3]?
**A.** The Activity was “inactive”.

**Q.** And the Activity [4]?
**A.** The Activity was “inactive”.

**Q.** And the Activity (786-0 [5])?
**A.** The Activity was “Active”.

**Q.** What about the Activity [6] of the same compound?
**A.** The Activity was “Active”.

**Q.** What about the Activity [7] of the same compound?
**A.** Its Activity is “Active”.

**Q.** What about the Activity (K562 [8]) of the same compound?
**A.** The Activity was “Active”.

**Q.** And the Activity [9]?
**A.** Its Activity is “inactive”.

**Q.** And the Activity (786-0 [10])?
**A.** Its Activity is “Active”.

**Q.** And the Activity (K562 [11])?
**A.** Its Activity is “Active”.

**Q.** And the DC50 [12]?
**A.** Its DC50 is 1700 nM.

**Q.** And the DC50 [13]?
**A.** The DC50 was 1300 nM.

**Q.** What about the Activity (PC-3M [14]) of the same compound?
**A.** The Activity was “inactive”.

**Q.** And the concentration at 2 h [15]?
**A.** Its concentration at 2 h is greater than 1000 nM.

**Q.** What about the Activity [16] of the same compound?
**A.** The Activity was “inactive”.

**Q.** And the Activity [17]?
**A.** The Activity was “Active”.

**Q.** What about the Kd (Polycomb protein EED) of the same compound?
**A.** Its Kd is 190 nM.

**Q.** What about the Activity [18] of the same compound?
**A.** Its Activity is “Active”.

**Q.** And the Activity [19]?
**A.** The Activity was “Active”.

**Q.** What about the Activity (MDA-MB-468) of the same compound?
**A.** Its Activity is “Active”.

**Q.** What about the Activity [20] of the same compound?
**A.** The Activity was “inactive”.

**Q.** What about the Activity [21] of the same compound?
**A.** Its Activity is 100%.

**Q.** What about the Activity [22] of the same compound?
**A.** Its Activity is “Active”.

**Q.** And the Activity (PC-3M [23])?
**A.** The Activity was “Active”.

**Q.** And the Activity [24]?
**A.** The Activity was 50%.

**Q.** What about the Activity [25] of the same compound?
**A.** Its Activity is “inactive”.

**Q.** And the “fold change (FC)” value (K562 [26])?
**A.** The value was 2.3.

**Q.** What about the Activity [27] of the same compound?
**A.** Its Activity is “Active”.

**Q.** And the Activity (786-0 [28])?
**A.** Its Activity is “inactive”.

Source: ChEMBL document CHEMBL5543147, “Discovery and Characterization of a Novel Cereblon-Recruiting PRC1 Bridged PROTAC Degrader” (J Med Chem, 2024)
